Experiment: AAMI 6-week study: essential fatty acid parameters in RBC (gas chromatography)
Format: in vivo, human
Settings: for AA RBC Mean change from Baseline / DHA RBC Mean change from Baseline / AA RBC 1 or 2 g versus 4 g LS Mean / DHA RBC 1 or 2 g versus 4 g LS Mean: AAMI; for AA RBC Mean change from Baseline / DHA RBC Mean change from Baseline: mean (SD); for DGLA 1 or 2 g versus 4 g, LS Mean / DPAn-3 1 or 2 g versus 4 g, LS Mean / EPA/AA 1 or 2 g versus 4 g, LS Mean / DGLA Mean change from Baseline, Mean (SD) / DPAn-3 Mean change from Baseline, Mean (SD) / EPA/AA Mean change from Baseline, Mean (SD) / DGLA Baseline Mean (SD) / DPAn-3 Baseline Mean (SD) / EPA/AA Baseline Mean (SD): RBC
Procedure: A single-center, 6-week, double-blind, randomizes, parallel-group, placebo-controlled, dose-ranging pilot study was performed to evaluate the efficacy, tolerability, and safety of >96% ethyl-EPA in subjects with subjective and objective memory impairment according to generally accepted criteria for Age-Associated Memory Impairment (“AAMI”). The primary objective of the study was to determine the effect of >96% ethyl-EPA 1 g, 2 g, and 4 g daily, compared to placebo, on cognitive performance in subjects with AAMI.
Ninety-four subjects were randomized into one of six groups: 1 g E-EPA daily (n=23), 2 g E-EPA daily (n=24), 4 g E-EPA daily (n=24), 1 g placebo daily (n=7), 2 g placebo daily (n=8), and 4 g placebo daily (n=8). E-EPA was provided as 500 mg soft gel capsules containing>96% E-EPA and 0.2% dl-α-tocopherol as an antioxidant. Placebo capsules contained 467 mg of liquid paraffin and 0.2% dl-α-tocopherol. Ninety-one subjects completed the study. Two subjects in the 2 g E-EPA group and one subject in the 2 g placebo group discontinued the study.
Blood samples (10 mL) were collected at Visit 1 (screening) and at Visits 4, 5 and 6. Analysis was performed by MSR Lipid Analysis, Scottish Crop Research Institute, Dundee, UK. The screening sample acted as baseline for the EFA measurements. Lipid was extracted from plasma, serum and RBC suspensions and converted into fatty acid methyl esters which were analyzed by gas chromatography to give fatty acid profiles as micrograms fatty acid per gram of sample (μgFA/g) and normalized area percent.
RBC and plasma EFA data were collected at baseline, Day 14, 28 and 42 and summarized by visit for each treatment group. Change from baseline and percent change from baseline were also summarized. ANCOVA comparison of ethyl-EPA dose groups and ethyl-EPA versus placebo was performed.

[1] = Ethyl-EPA 1 g versus 4 g, p-value <0.001

In the case of `CC/C=C\C/C=C\C/C=C\C/C=C\C/C=C\CCCC(=O)OCC` [IPE, all-cis eicosa-5,8,11,14,17-pentaenoic acid ethyl ester], the “AA RBC Mean change from Baseline” value (1 g daily, Day 14) was −8.1 (21.95) μg/g, the “DHA RBC Mean change from Baseline” value (1 g daily, Day 14) was −4.6 (9.76) μg/g and the “AA RBC Mean change from Baseline” value (1 g daily, Day 28) was −17.0 (20.69) μg/g. The “DHA RBC Mean change from Baseline” value (1 g daily, Day 28) was −6.4 (11.57) μg/g, the “AA RBC Mean change from Baseline” value (1 g daily, Day 42) was −14.2 (27.69) μg/g and the “DHA RBC Mean change from Baseline” value (1 g daily, Day 42) was −7.0 (12.20) μg/g. The “AA RBC 1 or 2 g versus 4 g LS Mean” value (1 g versus 4 g) was 8.4 µg/g, the “DHA RBC 1 or 2 g versus 4 g LS Mean” value (1 g versus 4 g) was 1.0 µg/g and the “AA RBC Mean change from Baseline” value (2 g daily, Day 14) was −3.1 (25.84) μg/g. The “DHA RBC Mean change from Baseline” value (2 g daily, Day 14) was −2.0 (9.46) μg/g, the “AA RBC Mean change from Baseline” value (2 g daily, Day 28) was −14.1 (26.89) μg/g and the “DHA RBC Mean change from Baseline” value (2 g daily, Day 28) was −6.2 (9.34) μg/g. The “AA RBC Mean change from Baseline” value (2 g daily, Day 42) was −18.8 (25.62) μg/g, the “DHA RBC Mean change from Baseline” value (2 g daily, Day 42) was −6.3 (9.42) μg/g and the “AA RBC 1 or 2 g versus 4 g LS Mean” value (2 g versus 4 g) was 9.8 µg/g. For the same compound, the “DHA RBC 1 or 2 g versus 4 g LS Mean” value (2 g versus 4 g) was 1.0 µg/g, the “AA RBC Mean change from Baseline” value (4 g daily, Day 14) was −15.7 (26.76) μg/g and the “DHA RBC Mean change from Baseline” value (4 g daily, Day 14) was −6.9 (9.13) μg/g. For the same compound, the “AA RBC Mean change from Baseline” value (4 g daily, Day 28) was −22.8 (29.56) μg/g, the “DHA RBC Mean change from Baseline” value (4 g daily, Day 28) was −8.7 (11.63) μg/g and the “AA RBC Mean change from Baseline” value (4 g daily, Day 42) was −34.4 (31.44) μg/g. The “DHA RBC Mean change from Baseline” value (4 g daily, Day 42) was −13.8 (13.76) μg/g, the “DGLA 1 or 2 g versus 4 g, LS Mean” value (Ethyl-EPA 1 g versus 4 g, p-value 0.027) was 1.5 µg/g and the “DPAn-3 1 or 2 g versus 4 g, LS Mean” value [1] was -6.2 µg/g. The “EPA/AA 1 or 2 g versus 4 g, LS Mean” value [1] was −0.18, the “DGLA Mean change from Baseline, Mean (SD)” value (“DGLA Mean change … (SD)” below) (Ethyl-EPA 1 g, Day 14) was −2.7 (3.82) μg/g and the “DPAn-3 Mean change from Baseline, Mean (SD)” value (“DPAn-3 Mean change … (SD)” for short) (Ethyl-EPA 1 g, Day 14) was 0.9 (5.03) μg/g. The “EPA/AA Mean change from Baseline, Mean (SD)” value (“EPA/AA Mean change … (SD)” below) (Ethyl-EPA 1 g, Day 14) was 0.1 (0.04), the “DGLA Mean change … (SD)” value (Ethyl-EPA 1 g, Day 28) was −3.8 (3.31) μg/g and the “DPAn-3 Mean change … (SD)” value (Ethyl-EPA 1 g, Day 28) was 3.3 (5.42) μg/g. The “EPA/AA Mean change … (SD)” value (Ethyl-EPA 1 g, Day 28) was 0.1 (0.05), the “DGLA Mean change … (SD)” value (Ethyl-EPA 1 g, Day 42) was −3.5 (4.51) μg/g and the “DPAn-3 Mean change … (SD)” value (Ethyl-EPA 1 g, Day 42) was 6.5 (6.19) μg/g. For the same compound, the “EPA/AA Mean change … (SD)” value (Ethyl-EPA 1 g, Day 42) was 0.1 (0.06), the “DGLA Baseline Mean (SD)” value (Ethyl-EPA 1 g) was 23.0 (5.19) μg/g and the “DPAn-3 Baseline Mean (SD)” value (Ethyl-EPA 1 g) was 34.1 (5.43) μg/g. For the same compound, the “EPA/AA Baseline Mean (SD)” value (Ethyl-EPA 1 g) was 0.1 (0.07), the “DPAn-3 1 or 2 g versus 4 g, LS Mean” value (Ethyl-EPA 2 g versus 4 g, p-value 0.002) was -2.5 µg/g and the “DGLA 1 or 2 g versus 4 g, LS Mean” value (Ethyl-EPA 2 g versus 4 g, p-value 0.032) was 1.5 µg/g. For the same compound, the “EPA/AA 1 or 2 g versus 4 g, LS Mean” value (Ethyl-EPA 2 g versus 4 g, p-value <0.001) was −0.11, the “DGLA Mean change … (SD)” value (Ethyl-EPA 2 g, Day 14) was −2.6 (3.54) μg/g and the “DPAn-3 Mean change … (SD)” value (Ethyl-EPA 2 g, Day 14) was 5.6 (6.28) μg/g. For the same compound, the “EPA/AA Mean change … (SD)” value (Ethyl-EPA 2 g, Day 14) was 0.2 (0.04), the “DGLA Mean change … (SD)” value (Ethyl-EPA 2 g, Day 28) was −4.5 (3.58) μg/g and the “DPAn-3 Mean change … (SD)” value (Ethyl-EPA 2 g, Day 28) was 9.4 (6.74) μg/g. The “EPA/AA Mean change … (SD)” value (Ethyl-EPA 2 g, Day 28) was 0.02 (0.06), the “DGLA Mean change … (SD)” value (Ethyl-EPA 2 g, Day 42) was −5.3 (3.65) μg/g and the “DPAn-3 Mean change … (SD)” value (Ethyl-EPA 2 g, Day 42) was 13.2 (7.23) μg/g. For the same compound, the “EPA/AA Mean change … (SD)” value (Ethyl-EPA 2 g, Day 42) was 0.3 (0.06), the “DGLA Baseline Mean (SD)” value (Ethyl-EPA 2 g) was 23.0 (5.76) μg/g and the “DPAn-3 Baseline Mean (SD)” value (Ethyl-EPA 2 g) was 33.2 (4.51) μg/g. For the same compound, the “EPA/AA Baseline Mean (SD)” value (Ethyl-EPA 2 g) was 0.1 (0.06), the “DGLA Mean change … (SD)” value (Ethyl-EPA 4 g, Day 14) was −5.3 (4.10) μg/g and the “DPAn-3 Mean change … (SD)” value (Ethyl-EPA 4 g, Day 14) was 5.4 (5.38) μg/g. For the same compound, the “EPA/AA Mean change … (SD)” value (Ethyl-EPA 4 g, Day 14) was 0.3 (0.07), the “DGLA Mean change … (SD)” value (Ethyl-EPA 4 g, Day 28) was −7.1 (4.63) μg/g and the “DPAn-3 Mean change … (SD)” value (Ethyl-EPA 4 g, Day 28) was 12.4 (6.98) μg/g. The “EPA/AA Mean change … (SD)” value (Ethyl-EPA 4 g, Day 28) was 0.4 (0.11), the “DGLA Mean change … (SD)” value (Ethyl-EPA 4 g, Day 42) was −8.0 (4.98) μg/g and the “DPAn-3 Mean change … (SD)” value (Ethyl-EPA 4 g, Day 42) was 16.2 (10.07) μg/g. The “EPA/AA Mean change … (SD)” value (Ethyl-EPA 4 g, Day 42) was 0.4 (0.14), the “DGLA Baseline Mean (SD)” value (Ethyl-EPA 4 g) was 24.0 (5.77) μg/g and the “DPAn-3 Baseline Mean (SD)” value (Ethyl-EPA 4 g) was 34.5 (4.34) μg/g. The “EPA/AA Baseline Mean (SD)” value (Ethyl-EPA 4 g) was 0.1 (0.04).

Reference: US11229618B2 (Amarin Pharmaceuticals Ireland Limited, priority 2012, dated 2022)
